Activity calls are given as the source filed them. The rule behind the calls is not given here.
Key:
[1] = Acute toxicity in mouse assessed as behavioral changes at 50 g/Kg, IG measured for 14 days; details: in vivo, po, 50000 mg/kg, 336 h, time 14 day
Rattus norvegicus [2] = experiment: (§1) Anti-hyperuricemic activity against potassium oxonate-induced hyperuricemic Sprague-Dawley rat model assessed as ratio of urinary urate to urinary creatinine at 4 mg/kg, po pre-administered via gavage twice daily for 5 times followed by potassium oxonate injection for 1 hrs prior to last dose and measured after 3 hrs; type: functional; details: time 123 hrs
Rattus norvegicus [3] = experiment: Anti-hyperuricemic activity against potassium oxonate-induced hyperuricemic Sprague-Dawley rat model assessed as urine volume at 4 mg/kg, po pre-administered via gavage twice daily for 5 times followed by potassium oxonate injection for 1 hrs prior to last dose and measured after 3 hrs; type: functional; details: time 123 hrs
Rattus norvegicus [4] = experiment: (§2) Anti-hyperuricemic activity against potassium oxonate-induced hyperuricemic Sprague-Dawley rat model assessed as urinary urate at 1 mg/kg, po pre-administered via gavage twice daily for 5 times followed by potassium oxonate injection for 1 hrs prior to last dose and measured after 3 hrs; type: functional; details: time 123 hrs
Mus musculus [5] = experiment: Hypouricemic activity in potassium oxonate-induced hyperuricemic Kunming mouse model assessed as decrease in serum uric acid level pre-administered intragastrically via gavage twice daily for 5 times followed by potassium oxonate injection for 1 hrs prior to last dose by phosphotungstic acid method; type: functional, organism-based; details: dose 1-4 mg/kg, time 5.0 day
Rattus norvegicus [6] = experiment: Anti-hyperuricemic activity against potassium oxonate-induced hyperuricemic Sprague-Dawley rat model assessed as increase in urinary urate level at 2 mg/kg, po pre-administered via gavage twice daily for 5 times followed by potassium oxonate injection for 1 hrs prior to last dose and measured after 3 hrs relative to control; type: functional; details: time 123 hrs
Mus musculus [7] = experiment: Hypouricemic activity in potassium oxonate-induced hyperuricemic Kunming mouse model assessed as decrease in serum uric acid level at 5 mg/kg, IG pre-administered via gavage twice daily for 5 times followed by potassium oxonate injection for 1 hrs prior to last dose by phosphotungstic acid method; type: functional; details: time 5.0 day
Rattus norvegicus [8] = experiment: Anti-hyperuricemic activity against potassium oxonate-induced hyperuricemic Sprague-Dawley rat model assessed as fractional excretion of urate at 4 mg/kg, po pre-administered via gavage twice daily for 5 times followed by potassium oxonate injection for 1 hrs prior to last dose and measured after 3 hrs relative to control; type: functional; details: time 123 hrs
Rattus norvegicus [9] = experiment: as §2, with “as clearance of” for “as urinary”, “urate measured per body surface area of 0.0311 m2” for “urate”, “at 2” for “at 1”; type: functional; details: time 123 hrs
[10] = biological target: T1, Xanthine dehydrogenase/oxidase (Homo sapiens, UniProt P47989); experiment: Inhibition of XOD (unknown origin) using xanthine as substrate assessed as inhibition of uric acid generation at 100 mg/L preincubated for 15 mins followed by xanthine addition and measured by spectrophotometric analysis relative to control
Mus musculus [11] = experiment: Hypouricemic activity in potassium oxonate-induced hyperuricemic Kunming mouse model assessed as decrease in serum XOD level at 1 to 4 mg/kg, IG pre-administered via gavage twice daily for 5 times followed by potassium oxonate injection for 1 hrs prior to last dose; type: functional, organism-based; details: dose 1-4 mg/kg, time 5.0 day
Rattus norvegicus [12] = experiment: Anti-hyperuricemic activity against potassium oxonate-induced hyperuricemic Sprague-Dawley rat model assessed as urinary urate level at 1 mg/kg, po pre-administered via gavage twice daily for 5 times followed by potassium oxonate injection for 1 hrs prior to last dose and measured after 3 hrs; type: functional; details: time 123 hrs
Rattus norvegicus [13] = experiment: Anti-hyperuricemic activity against potassium oxonate-induced hyperuricemic Sprague-Dawley rat model assessed as urine volume at 2 mg/kg, po pre-administered via gavage twice daily for 5 times followed by potassium oxonate injection for 1 hrs prior to last dose and measured after 3 hrs; type: functional; details: time 123 hrs
Homo sapiens = species: Homo sapiens; experiment: Inhibition of uricase (unknown origin) using uric acid as substrate at 37.5 mg/L preincubated with compounds for 15 mins followed by uric acid addition
[14] = biological target: T1, Xanthine dehydrogenase/oxidase; experiment: Inhibition of XOD (unknown origin) using xanthine as substrate assessed as inhibition of uric acid generation at 50 mg/L preincubated for 15 mins followed by xanthine addition and measured by spectrophotometric analysis relative to control
Rattus norvegicus [15] = experiment: Anti-hyperuricemic activity against potassium oxonate-induced hyperuricemic Sprague-Dawley rat model assessed as urine volume at 1 mg/kg, po pre-administered via gavage twice daily for 5 times followed by potassium oxonate injection for 1 hrs prior to last dose and measured after 3 hrs; type: functional; details: time 123 hrs
Rattus norvegicus [16] = experiment: as §2, with “clearance of” for “urinary”, “urate measured per body surface area of 0.0311 m2” for “urate”; type: functional; details: time 123 hrs
[17] = biological target: T1, Xanthine dehydrogenase/oxidase; experiment: Inhibition of XOD (unknown origin) using xanthine as substrate assessed as inhibition of uric acid generation at 150 mg/L preincubated for 15 mins followed by xanthine addition and measured by spectrophotometric analysis relative to control
Rattus norvegicus [18] = experiment: Anti-hyperuricemic activity against potassium oxonate-induced hyperuricemic Sprague-Dawley rat model assessed as serum urea nitrogen level at 1 mg/kg, po pre-administered via gavage twice daily for 5 times followed by potassium oxonate injection for 1 hrs prior to last dose and measured after 3 hrs; type: functional; details: time 123 hrs
Rattus norvegicus [19] = experiment: as §2, with “excretion of” for “urinary”, “urate per volume of glomerular filtration measured per body surface area of 0.0311 m2” for “urate”; type: functional; details: time 123 hrs
Rattus norvegicus [20] = experiment: Anti-hyperuricemic activity against potassium oxonate-induced hyperuricemic Sprague-Dawley rat model assessed as serum urate level at 2 mg/kg, po pre-administered via gavage twice daily for 5 times followed by potassium oxonate injection for 1 hrs prior to last dose and measured after 3 hrs; type: functional; details: time 123 hrs
Rattus norvegicus [21] = experiment: as §1, with “2” for “4”; type: functional; details: time 123 hrs
[22] = biological target: T2, Solute carrier family 22 member 12 (Homo sapiens, UniProt Q96S37); experiment: Inhibition of human URAT1-mediated [8-14C]uric acid uptake expressed in HEK293 cells using [8-14C]uric acid as substrate by liquid scintillation counter analysis; type: cell-based
T2 sequence (Q96S37 whole entry): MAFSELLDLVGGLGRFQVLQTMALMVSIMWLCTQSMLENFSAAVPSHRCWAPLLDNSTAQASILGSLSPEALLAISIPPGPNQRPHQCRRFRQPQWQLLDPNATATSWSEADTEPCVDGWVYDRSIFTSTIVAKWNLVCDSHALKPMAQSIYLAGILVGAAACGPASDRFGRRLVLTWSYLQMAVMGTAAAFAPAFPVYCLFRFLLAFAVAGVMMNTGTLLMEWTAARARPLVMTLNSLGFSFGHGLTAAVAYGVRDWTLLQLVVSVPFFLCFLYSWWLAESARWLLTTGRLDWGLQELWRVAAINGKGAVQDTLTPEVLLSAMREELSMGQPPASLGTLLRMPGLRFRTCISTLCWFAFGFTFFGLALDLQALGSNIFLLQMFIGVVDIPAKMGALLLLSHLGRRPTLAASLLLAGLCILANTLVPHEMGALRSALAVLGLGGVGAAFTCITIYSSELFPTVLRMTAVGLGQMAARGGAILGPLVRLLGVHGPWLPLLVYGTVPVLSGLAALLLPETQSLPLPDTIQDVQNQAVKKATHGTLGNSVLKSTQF

Rattus norvegicus [23] = experiment: Anti-hyperuricemic activity against potassium oxonate-induced hyperuricemic Sprague-Dawley rat model assessed as serum urate level at 4 mg/kg, po pre-administered via gavage twice daily for 5 times followed by potassium oxonate injection for 1 hrs prior to last dose and measured after 3 hrs; type: functional; details: time 123 hrs
[24] = Toxicity in Kunming mouse assessed as decrease in serum uric acid level upto 250 mg/kg; type: organism-based; details: in vivo
Mus musculus [25] = experiment: Anti-hyperouricemic activity in uric acid-induced hyperuricemic Kunming mouse model assessed as decrease in serum uric acid level at 2 to 8 mg/kg, IG pre-administered via gavage twice daily for 5 times followed by uric acid injection for 30 mins prior to last dose by phosphotungstic acid method; type: functional, organism-based; details: dose 2-8 mg/kg, time 5.0 day

T1 sequence (P47989 whole entry): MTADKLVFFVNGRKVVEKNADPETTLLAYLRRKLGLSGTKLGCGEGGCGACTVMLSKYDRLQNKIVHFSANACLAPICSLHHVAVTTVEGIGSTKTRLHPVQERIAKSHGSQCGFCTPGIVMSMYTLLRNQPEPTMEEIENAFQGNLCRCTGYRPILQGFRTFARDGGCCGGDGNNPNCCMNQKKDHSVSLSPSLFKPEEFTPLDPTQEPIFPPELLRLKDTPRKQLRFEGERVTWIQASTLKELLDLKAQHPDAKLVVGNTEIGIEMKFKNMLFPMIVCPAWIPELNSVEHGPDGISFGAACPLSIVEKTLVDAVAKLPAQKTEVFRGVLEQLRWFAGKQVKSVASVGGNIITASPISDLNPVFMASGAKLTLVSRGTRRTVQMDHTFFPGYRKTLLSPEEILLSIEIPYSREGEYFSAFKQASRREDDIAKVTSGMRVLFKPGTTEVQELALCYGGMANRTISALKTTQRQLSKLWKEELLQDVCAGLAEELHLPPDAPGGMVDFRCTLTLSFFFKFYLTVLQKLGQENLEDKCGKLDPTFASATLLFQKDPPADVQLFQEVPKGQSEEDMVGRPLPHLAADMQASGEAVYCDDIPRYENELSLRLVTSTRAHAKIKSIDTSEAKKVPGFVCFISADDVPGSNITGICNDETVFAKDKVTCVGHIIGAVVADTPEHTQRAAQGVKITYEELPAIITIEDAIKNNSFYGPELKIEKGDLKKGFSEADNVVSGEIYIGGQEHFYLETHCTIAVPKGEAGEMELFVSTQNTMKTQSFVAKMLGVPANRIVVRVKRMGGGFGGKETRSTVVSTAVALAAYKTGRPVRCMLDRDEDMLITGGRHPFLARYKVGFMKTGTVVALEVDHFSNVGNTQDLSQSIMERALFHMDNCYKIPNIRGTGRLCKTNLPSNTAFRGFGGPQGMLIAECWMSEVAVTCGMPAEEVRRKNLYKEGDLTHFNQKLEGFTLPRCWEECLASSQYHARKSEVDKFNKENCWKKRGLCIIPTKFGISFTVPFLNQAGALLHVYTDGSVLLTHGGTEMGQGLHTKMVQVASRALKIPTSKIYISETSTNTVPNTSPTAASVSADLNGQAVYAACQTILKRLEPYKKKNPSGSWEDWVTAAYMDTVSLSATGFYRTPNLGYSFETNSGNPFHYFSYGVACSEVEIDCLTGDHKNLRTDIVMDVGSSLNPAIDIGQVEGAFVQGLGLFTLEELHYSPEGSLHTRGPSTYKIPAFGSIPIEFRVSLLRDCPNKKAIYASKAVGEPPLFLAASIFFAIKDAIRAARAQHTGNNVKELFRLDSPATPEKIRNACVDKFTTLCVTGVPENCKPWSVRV

Compound: COc1c(O)cc2oc3cc(O)c(CC=C(C)C)c(O)c3c(=O)c2c1CC=C(C)C [MANGOSTIN]
- Activity [1]: Non-Toxic
- Ratio (Rattus norvegicus [2]): 2.9
- Activity (Rattus norvegicus [3]): 6.2 mL
- Activity (Rattus norvegicus [4]): 501 µmol
- Activity (Mus musculus [5]): Dose-Dependent Effect
- Activity (Rattus norvegicus [6]): 42%
- Activity (Mus musculus [7]): Active
- Activity (Rattus norvegicus [8]): 85%
- Activity (Rattus norvegicus [9]): 11.2 mL/min
- inhibition at 100 µg/mL [10]: 1.4%
- Activity (Mus musculus [11]): inactive
- Activity (Rattus norvegicus [12]): 2.4 mmol/L
- Activity (Rattus norvegicus [13]): 5.6 mL
- inhibition (Homo sapiens): 1.4%
- inhibition at 50 µg/mL [14]: 4.9%
- Activity (Rattus norvegicus [15]): 6.8 mL
- Activity (Rattus norvegicus [16]): 13.6 mL/min
- inhibition at 150 µg/mL [17]: 1.4%
- Activity (Rattus norvegicus [18]): 10.7 mmol/L
- Activity (Rattus norvegicus [19]): 4.9 µmol/L
- Activity (Rattus norvegicus [20]): 236 µmol/L
- Ratio (Rattus norvegicus [21]): 3.2
- IC50 [22]: 58.9 µM
- Activity (Rattus norvegicus [23]): 202 µmol/L
- Activity [24]: Non-Toxic
- Activity (Mus musculus [25]): Active

Reference: ChEMBL document CHEMBL5226379, “Hypouricemic Actions of the Pericarp of Mangosteen in Vitro and in Vivo” (J Nat Prod, 2023)
